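Test compounds were applied to cells in 96-well plates for 48 hours at 5 doses. GI50 is the concentration that inhibits growth by half.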 The source made the active and inactive calls. Rule as the data show it: active = GI50 up to about 1.1 µM and inactive = higher.
Legend:
Test in all cases: NCI anticancer screen, dose series, 48 h
[1] = test system: A549
[2] = test system: ACHN
[3] = test system: BT-549
[4] = test system: CAKI-1
[5] = test system: IGROV-1
[6] = test system: KM12
[7] = test system: LXFL 529
[8] = test system: MDA-MB-435
[9] = test system: Malme-3M
[10] = test system: NCI-H23
[11] = test system: NCI-H460
[12] = test system: OVCAR-3
[13] = test system: PC-3
[14] = test system: SK-MEL-28
[15] = test system: SK-MEL-5
[16] = test system: SNB-19
[17] = test system: SR
[18] = test system: U-251
[19] = test system: UACC-62
[20] = test system: NCI-H522

SMILES | GI50 [1] | GI50 [2] | GI50 [3] | GI50 [4] | GI50 [5] | GI50 [6] | GI50 [7] | GI50 [8] | GI50 [9] | GI50 [10] | GI50 [11] | GI50 [12] | GI50 [13] | GI50 [14] | GI50 [15] | GI50 [16] | GI50 [17] | GI50 [18] | GI50 [19] | GI50 [20]
O=c1[nH]c(=O)n([C@@H]2O[C@H](CO)[C@@H](O)[C@H]2O)cc1F [5-FLUOROURIDINE] | 0.0179 µM (active) | 0.0307 µM (active) | 0.459 µM (active) | 0.0483 µM (active) | 0.0803 µM (active) | 0.0671 µM (active) | 0.15 µM (active) | 0.0333 µM (active) | 0.0678 µM (active) | 0.229 µM (active) | 0.0159 µM (active) | 0.223 µM (active) | 0.164 µM (active) | 0.805 µM (active) | 0.344 µM (active) | 0.0579 µM (active) | 0.0473 µM (active) | 0.0462 µM (active) | 0.169 µM (active) | 
N#C/C(=C\c1ccc2[nH]ccc2c1)C(=O)c1ccc(O)c(O)c1 | > 57.7 µM (inactive) | 45.8 µM (inactive) | 24.5 µM (inactive) | > 100 µM (inactive) | > 88.5 µM (inactive) | > 100 µM (inactive) | > 100 µM (inactive) | 71.8 µM (inactive) | > 65.8 µM (inactive) | > 100 µM (inactive) | 37 µM (inactive) | 9.42 µM (inactive) | > 100 µM (inactive) | > 100 µM (inactive) | > 75.2 µM (inactive) | 50 µM (inactive) | 44.2 µM (inactive) | 41.6 µM (inactive) | 70 µM (inactive) | 29.4 µM (inactive)
O=C(O)C(C(=O)O)P(=S)(S)c1ccccc1 (stereo unspecified) | > 100 µM (inactive) | > 100 µM (inactive) | > 100 µM (inactive) | > 100 µM (inactive) | > 100 µM (inactive) | > 100 µM (inactive) | > 100 µM (inactive) | > 100 µM (inactive) | > 100 µM (inactive) | > 100 µM (inactive) | > 100 µM (inactive) | > 100 µM (inactive) | > 100 µM (inactive) | > 100 µM (inactive) | > 31.6 µM (inactive) | > 100 µM (inactive) | > 73.5 µM (inactive) | > 100 µM (inactive) | > 100 µM (inactive) | > 100 µM (inactive)
CNc1cccc(-c2cc(O)c3cc4c(cc3n2)OCO4)c1 | 0.664 µM (active) | 0.883 µM (active) | 0.394 µM (active) | 0.237 µM (active) | 0.437 µM (active) | 0.177 µM (active) | 0.119 µM (active) | 0.0378 µM (active) | 0.168 µM (active) | 0.436 µM (active) | 0.436 µM (active) | 0.126 µM (active) | 0.254 µM (active) | 0.859 µM (active) | 0.0847 µM (active) | 0.432 µM (active) | 0.0407 µM (active) | 0.267 µM (active) | 0.153 µM (active) | 0.127 µM (active)
COc1ccc(OC)c2c3c(ccc12)C(c1ccccc1)OC3=O (stereo unspecified) | 85.5 µM (inactive) | 55.7 µM (inactive) |  | 55.1 µM (inactive) | > 100 µM (inactive) | 56.5 µM (inactive) | 43.8 µM (inactive) |  | 59 µM (inactive) | 17.7 µM (inactive) | 47.2 µM (inactive) | 25.8 µM (inactive) |  | 52.4 µM (inactive) | 47.5 µM (inactive) | > 100 µM (inactive) | 45 µM (inactive) | 60.3 µM (inactive) | > 100 µM (inactive) | 36.5 µM (inactive)
COc1ccc(-c2onc(-c3c(C)cc(C)cc3C)c2C2=NCCCN2)cc1 | 65.8 µM (inactive) | 64.1 µM (inactive) |  | 13.6 µM (inactive) | > 100 µM (inactive) | 46.3 µM (inactive) | > 100 µM (inactive) |  | 41.9 µM (inactive) | > 100 µM (inactive) | 32.1 µM (inactive) | 57 µM (inactive) |  | 36.4 µM (inactive) | 23 µM (inactive) | 35.1 µM (inactive) | 36.6 µM (inactive) | 22.3 µM (inactive) | 55.2 µM (inactive) | 14.3 µM (inactive)
COc1cc(C(C)c2cc3c(cc2OCCCCCOc2cc4c(cc2C(C)c2cc(OC)c(OC)c(OC)c2)OCO4)OCO3)cc(OC)c1OC (stereo unspecified) | > 100 µM (inactive) | > 100 µM (inactive) |  | > 100 µM (inactive) | > 100 µM (inactive) | > 100 µM (inactive) | > 100 µM (inactive) |  | > 100 µM (inactive) | > 100 µM (inactive) | > 100 µM (inactive) | > 100 µM (inactive) |  | > 100 µM (inactive) | > 100 µM (inactive) | > 100 µM (inactive) | > 100 µM (inactive) | > 100 µM (inactive) | > 100 µM (inactive) | > 100 µM (inactive)
COc1ccc(NC(=O)CCc2cc(C(C)(C)C)[nH]n2)cc1 | > 100 µM (inactive) | > 100 µM (inactive) |  | > 100 µM (inactive) | > 100 µM (inactive) | > 100 µM (inactive) | > 100 µM (inactive) |  | > 100 µM (inactive) | > 100 µM (inactive) | > 100 µM (inactive) | > 100 µM (inactive) |  | > 100 µM (inactive) | > 100 µM (inactive) | > 100 µM (inactive) | > 100 µM (inactive) | > 100 µM (inactive) | > 100 µM (inactive) | 74 µM (inactive)
O=C1OC(c2cccc(C(F)(F)F)c2)c2ccc3ccccc3c21 (stereo unspecified) | 36.8 µM (inactive) | > 10 µM (inactive) |  | > 10 µM (inactive) | > 10 µM (inactive) | > 10 µM (inactive) | 8.3 µM (inactive) |  | > 10 µM (inactive) | 4.95 µM (inactive) | > 10 µM (inactive) | > 10 µM (inactive) |  | > 10 µM (inactive) | 4.74 µM (inactive) | > 10 µM (inactive) | > 10 µM (inactive) | 7.59 µM (inactive) | 7.41 µM (inactive) | > 10 µM (inactive)
C=C1CC2(OC1=O)c1ccccc1C=Cc1ccccc12 | 9.42 µM (inactive) | 4.8 µM (inactive) | 1.83 µM (inactive) | 3.05 µM (inactive) | 7.26 µM (inactive) | 4.05 µM (inactive) | 2.92 µM (inactive) | 1.68 µM (inactive) | 4.94 µM (inactive) | 6.32 µM (inactive) | 11.2 µM (inactive) | 4.61 µM (inactive) | 5.79 µM (inactive) | 4.34 µM (inactive) | 7.33 µM (inactive) | 16 µM (inactive) | 0.82 µM (active) | 8.04 µM (inactive) | 5.13 µM (inactive) | 1.76 µM (inactive)
O=C(Nc1cc(Cl)c(Cl)cc1Cl)C(=O)C1C=CCS1(=O)=O (stereo unspecified) | > 100 µM (inactive) | > 100 µM (inactive) |  | > 100 µM (inactive) | > 100 µM (inactive) | > 100 µM (inactive) | > 100 µM (inactive) |  | > 100 µM (inactive) | > 100 µM (inactive) | > 100 µM (inactive) | > 100 µM (inactive) |  | > 100 µM (inactive) | > 100 µM (inactive) | > 100 µM (inactive) | > 100 µM (inactive) | > 100 µM (inactive) | > 100 µM (inactive) | > 100 µM (inactive)

From ChEMBL document CHEMBL1201862, “PubChem BioAssay data set” (2004)
